# Where two headings read alike, the source gives them in different places.
# Tests used:
# C. difficile 174 = assay: MIC by agar dilution against Clostridioides difficile, test strain 18; format: cell-based
# S. aureus^MS [1] = assay: MIC by broth microdilution (aerobic pathogens), test strain 2; format: cell-based; conditions: Staphylococcus aureus
# Outline: (§1)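 MIC values come from a CLSI-standard broth microdilution method against a 13-strain panel spanning susceptible and vancomycin- or methicillin-resistant staphylococci and enterococci; 90% inhibition versus untreated growth defined the endpoint.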
# C. difficile 173 = assay: MIC by agar dilution against Clostridioides difficile, test strain 17; format: cell-based
# S. aureus^MS [2] = assay: MIC by broth microdilution (aerobic pathogens), test strain 1; format: cell-based; conditions: Staphylococcus aureus
# Outline: as §1
# M. tuberculosis = assay: MIC by resazurin (REMA) assay against Mycobacterium, test strain 20; format: cell-based
# Method: (§2) In order to test the antibacterial activity, the medium of Mycobacterium cultured to late log phase was diluted so as to be 4.0×10^5 cells/well in Middlebrook 7H10 agar medium (Difco) supplemented with 10% oleic acid, albumin, dextrose, catalase (OADC, Becton Dickinson) and 0.05% Tween 80 (Sigma Aldrich) and was dispensed into a 96-well plate. The compounds were treated so that DMSO was 1%, and after 3 days, a 0.025% resazurin (REMA) solution was dispensed, and the growth of the bacteria was confirmed after culturing. The MIC value was measured for the antibacterial activity through resazurin (excitation 530 nm, emission 590 nm).
# S. epidermis^MR = assay: MIC by broth microdilution (aerobic pathogens), test strain 6; format: cell-based, Methicillin resistant Staphylococcus epidermidis; conditions: Staphylococcus epidermidis
# Outline: as §1
# E. faecalis^LinR = assay: MIC by broth microdilution (aerobic pathogens), test strain 9; format: cell-based, Linezolid resistant Enterococcus faecalis; conditions: Enterococcus faecalis
# Outline: as §1
# C. difficile 161 = assay: MIC by agar dilution against Clostridioides difficile, test strain 16; format: cell-based; conditions: test strain 16, C. difficile 161, anaerobic, agar dilution, read-out: MIC
# S. epidermis = assay: MIC by broth microdilution (aerobic pathogens), test strain 5; format: cell-based; conditions: Staphylococcus epidermidis
# Outline: as §1
# E. faecalis^VanA = assay: MIC by broth microdilution (aerobic pathogens), test strain 8; format: cell-based, Vancomycin resistant Enterococcus faecalis; conditions: Enterococcus faecalis
# Outline: as §1
# E. faecium^LinR = assay: MIC by broth microdilution (aerobic pathogens), test strain 12; format: cell-based, Linezolid resistant Enterococcus faecium; conditions: Enterococcus faecium
# Outline: as §1
# E. faecalis = assay: MIC by broth microdilution (aerobic pathogens), test strain 7; format: cell-based; conditions: Enterococcus faecalis
# Outline: as §1
# S. aureus^VR = assay: MIC by broth microdilution (aerobic pathogens), test strain 4; format: cell-based, Vancomycin resistant Staphylococcus aureus; conditions: Staphylococcus aureus
# Method: (§3) The antibacterial activity of the compounds of Examples 1 to 48 of the present invention against aerobic pathogens were evaluated by measuring the minimum concentration of the antibiotic capable of inhibiting bacterial growth by 90% compared to the growth of the non-drug treated control group. MIC was measured by the broth microdilution method based on CLSI standards [Reference: Clinical and Laboratory Standards Institute Document. (2000) Methods for Dilution Antimicrobial Susceptibility Test for Bacteria that Grow Aerobically-Fifth Edition: M7-A5. CLSI, Villanova, PA].
# (§4) All 13 strains such as methicillin susceptible Staphylococcus aureus (MSSA), methicillin resistant Staphylococcus aureus (MRSA), Vancomycin resistant Staphylococcus aureus (VRSA), Staphylococcus epidermidis, methicillin resistant Staphylococcus epidermidis, Enterococcus faecalis, Vancomycin resistant Enterococcus faecalis, Enterococcus faecium, Vancomycin resistant Enterococcus faecium were used.
# E. faecium = assay: MIC by broth microdilution (aerobic pathogens), test strain 10; format: cell-based; conditions: Enterococcus faecium
# Outline: as §1
# S. aureus^MR = assay: MIC by broth microdilution (aerobic pathogens), test strain 3; format: cell-based, Methicillin resistant Staphylococcus aureus; conditions: Staphylococcus aureus
# Method: as §3, §4
# C. difficile 152 = assay: MIC by agar dilution against Clostridioides difficile, test strain 14; format: cell-based
# E. faecium^VRE = assay: MIC by broth microdilution (aerobic pathogens), test strain 11; format: cell-based, Vancomycin resistant Enterococcus faecium; conditions: Enterococcus faecium; test strain 11, E. faecium^VRE (vancomycin resistant); read-out: MIC
# Method: as §3, §4
# C. difficile 159 = assay: MIC by agar dilution against Clostridioides difficile, test strain 15; format: cell-based
# C. difficile 181 = assay: MIC by agar dilution against Clostridioides difficile, test strain 19; format: cell-based
# M. abscessus = assay: MIC by resazurin (REMA) assay against Mycobacterium, test strain 23; format: cell-based; conditions: Mycobacteroides abscessus
# Method: as §2
# M. intracelluare = assay: MIC by resazurin (REMA) assay against Mycobacterium, test strain 22; format: cell-based; conditions: Mycobacterium intracellulare
# Method: as §2
# M. avium = assay: MIC by resazurin (REMA) assay against Mycobacterium, test strain 21; format: cell-based
# Method: as §2
# C. difficile 9689 = assay: MIC by agar dilution against Clostridioides difficile, test strain 13; format: cell-based
# [3] = test strain 18, C. difficile 174, anaerobic, agar dilution, read-out: MIC
# [4] = test strain 2, S. aureus^MS, read-out: MIC
# [5] = test strain 17, C. difficile 173, anaerobic, agar dilution, read-out: MIC
# [6] = test strain 1, S. aureus^MS, read-out: MIC
# [7] = test strain 6, S. epidermis^MR (methicillin resistant), read-out: MIC
# [8] = test strain 9, E. faecalis^LinR (linezolid resistant), read-out: MIC
# [9] = test strain 5, S. epidermis, read-out: MIC
# [10] = test strain 8, E. faecalis^VanA (vancomycin resistant), read-out: MIC
# [11] = test strain 12, E. faecium^LinR (linezolid resistant), read-out: MIC
# [12] = test strain 7, E. faecalis, read-out: MIC
# [13] = test strain 4, S. aureus^VR (vancomycin resistant), read-out: MIC
# [14] = test strain 10, E. faecium, read-out: MIC
# [15] = test strain 3, S. aureus^MR (methicillin resistant), read-out: MIC
# [16] = test strain 14, C. difficile 152, anaerobic, agar dilution, read-out: MIC
# [17] = test strain 15, C. difficile 159, anaerobic, agar dilution, read-out: MIC
# [18] = test strain 19, C. difficile 181, anaerobic, agar dilution, read-out: MIC
# [19] = test strain 13, C. difficile 9689, anaerobic, agar dilution, read-out: MIC
# [20] = test strain 23, M. abscessus, resazurin, read-out: MIC
# [21] = test strain 22, M. intracelluare, resazurin, read-out: MIC
# [22] = test strain 21, M. avium, resazurin, read-out: MIC
Structure (SMILES),MIC (C. difficile 174; [3]),MIC (S. aureus^MS [1]; [4]),MIC (C. difficile 173; [5]),MIC (S. aureus^MS [2]; [6]),MIC (S. epidermis^MR; [7]),MIC (E. faecalis^LinR; [8]),MIC (C. difficile 161),MIC (S. epidermis; [9]),MIC (E. faecalis^VanA; [10]),MIC (E. faecium^LinR; [11]),MIC (E. faecalis; [12]),MIC (S. aureus^VR; [13]),MIC (E. faecium; [14]),MIC (S. aureus^MR; [15]),MIC (C. difficile 152; [16]),MIC (M. abscessus; [20]),MIC (M. intracelluare; [21]),MIC (M. avium; [22]),further results
C/C=C(\NC(=O)c1csc(-c2csc(-c3ccc4c(n3)-c3csc(n3)[C@H]([C@@H](C)O)NC(=O)c3csc(n3)[C@H](C(C)C)NC(=O)c3csc(n3)/C(=C/C)NC(=O)[C@H]([C@@H](C)O)NC(=O)c3csc-4n3)n2)n1)C(=O)NCCN1CCOCC1 [Compound 1],0.5 µg/mL,0.125 µg/mL,1 µg/mL,0.125 µg/mL,0.125 µg/mL,0.125 µg/mL,0.5 µg/mL,0.125 µg/mL,0.125 µg/mL,1 µg/mL,0.25 µg/mL,1 µg/mL,0.5 µg/mL,,,,,,MIC (M. tuberculosis): 0.076 µg/mL
C/C=C(\NC(=O)c1csc(-c2csc(-c3ccc4c(n3)-c3csc(n3)[C@H]([C@@H](C)O)NC(=O)c3csc(n3)[C@H](C(C)C)NC(=O)c3csc(n3)/C(=C/C)NC(=O)[C@H]([C@@H](C)O)NC(=O)c3csc-4n3)n2)n1)C(=O)NCCn1c([N+](=O)[O-])cnc1C [Compound 3],0.25 µg/mL,< 0.0625 µg/mL,0.5 µg/mL,0.0625 µg/mL,0.125 µg/mL,0.125 µg/mL,0.25 µg/mL,0.25 µg/mL,0.125 µg/mL,0.25 µg/mL,0.0625 µg/mL,0.25 µg/mL,0.125 µg/mL,1 µg/mL,1 µg/mL,,,,MIC (M. tuberculosis): 0.1 µg/mL; MIC (E. faecium^VRE): 0.25 µg/mL; MIC (C. difficile 159; [17]): 1 µg/mL; MIC (C. difficile 181; [18]): 0.5 µg/mL
C/C=C1\NC(=O)[C@H]([C@@H](C)O)NC(=O)c2csc(n2)-c2ccc(-c3nc(-c4nc(C(=O)NC5(C(=O)NCCN6CCN(C)CC6)CC5)cs4)cs3)nc2-c2csc(n2)[C@H]([C@@H](C)O)NC(=O)c2csc(n2)[C@H](C(C)C)NC(=O)c2csc1n2 [Compound 4],,0.5 µg/mL,,0.5 µg/mL,0.5 µg/mL,1 µg/mL,,,0.5 µg/mL,1 µg/mL,,1 µg/mL,0.5 µg/mL,1 µg/mL,,,,,MIC (M. abscessus): 0.157 µg/mL; MIC (S. epidermis): 0.25 µg/mL; MIC (M. intracelluare): 0.143 µg/mL; MIC (M. avium): 0.115 µg/mL; MIC (E. faecalis): 0.25 µg/mL
C/C=C1\NC(=O)[C@H]([C@@H](C)O)NC(=O)c2csc(n2)-c2ccc(-c3nc(-c4nc(C(=O)NC5(C(=O)NCCN6C(=O)CNC6=O)CC5)cs4)cs3)nc2-c2csc(n2)[C@H]([C@@H](C)O)NC(=O)c2csc(n2)[C@H](C(C)C)NC(=O)c2csc1n2 [Compound 5],,,,,,,,,,,,,,,,,,,MIC (C. difficile 174; 174): 0.25 µg/mL; MIC (C. difficile 9689; 9689): 1 µg/mL; MIC (S. aureus^MR): 1 µg/mL; MIC (C. difficile 152; 152): 0.5 µg/mL; MIC (S. aureus^MS [1]): 0.25 µg/mL; MIC (C. difficile 173; 173): 1 µg/mL; MIC (S. aureus^MS [2]): 0.25 µg/mL; MIC (S. epidermis^MR): 0.5 µg/mL; MIC (M. abscessus): 0.504 µg/mL; MIC (E. faecalis^LinR): 0.5 µg/mL; MIC (C. difficile 159; 159): 1 µg/mL; MIC (S. epidermis): 0.5 µg/mL; MIC (M. intracelluare): 0.155 µg/mL; MIC (C. difficile 181; 181): 0.125 µg/mL; MIC (E. faecalis^VanA): 0.5 µg/mL; MIC (E. faecium^LinR): 0.5 µg/mL; MIC (M. avium): 0.043 µg/mL; MIC (E. faecalis): 0.25 µg/mL; MIC (S. aureus^VR): 1 µg/mL; MIC (E. faecium): 1 µg/mL
C/C=C1\NC(=O)[C@H]([C@@H](C)O)NC(=O)c2csc(n2)-c2ccc(-c3nc(-c4nc(C(=O)NC5(C(=O)NCCCN6CCOCC6)CC5)cs4)cs3)nc2-c2csc(n2)[C@H]([C@@H](C)O)NC(=O)c2csc(n2)[C@H](C(C)C)NC(=O)c2csc1n2 [Compound 7],0.06 µg/mL,0.25 µg/mL,0.06 µg/mL,0.25 µg/mL,,,0.5 µg/mL,0.0625 µg/mL,0.25 µg/mL,0.5 µg/mL,0.25 µg/mL,1 µg/mL,0.25 µg/mL,0.5 µg/mL,0.06 µg/mL,0.322 µg/mL,0.107 µg/mL,0.083 µg/mL,MIC (C. difficile 9689; [19]): 0.25 µg/mL; MIC (S. epidermis^MR): 0.125 µg/mL; MIC (E. faecium^VRE): 1 µg/mL; MIC (E. faecalis^LinR): 0.125 µg/mL; MIC (C. difficile 159; [17]): 0.25 µg/mL; MIC (C. difficile 181; [18]): 0.25 µg/mL
C/C=C1\NC(=O)[C@H]([C@@H](C)O)NC(=O)c2csc(n2)-c2ccc(-c3nc(-c4nc(C(=O)NC5(C(=O)NCCCN6CCSCC6)CC5)cs4)cs3)nc2-c2csc(n2)[C@H]([C@@H](C)O)NC(=O)c2csc(n2)[C@H](C(C)C)NC(=O)c2csc1n2 [Compound 18],0.25 µg/mL,1 µg/mL,1 µg/mL,0.25 µg/mL,1 µg/mL,0.5 µg/mL,1 µg/mL,0.5 µg/mL,,,1 µg/mL,,1 µg/mL,,0.25 µg/mL,0.173 µg/mL,0.127 µg/mL,0.082 µg/mL,MIC (C. difficile 9689; [19]): 0.5 µg/mL
C/C=C1\NC(=O)[C@H]([C@@H](C)O)NC(=O)c2csc(n2)-c2ccc(-c3nc(-c4nc(C(=O)NC5(C(=O)NCCN6CCN(S(C)(=O)=O)CC6)CC5)cs4)cs3)nc2-c2csc(n2)[C@H]([C@@H](C)O)NC(=O)c2csc(n2)[C@H](C(C)C)NC(=O)c2csc1n2 [Compound 29],,0.25 µg/mL,,0.25 µg/mL,0.5 µg/mL,0.25 µg/mL,,0.5 µg/mL,,,1 µg/mL,,,,,0.43 µg/mL,0.13 µg/mL,0.161 µg/mL,
C/C=C1\NC(=O)[C@H]([C@@H](C)O)NC(=O)c2csc(n2)-c2ccc(-c3nc(-c4nc(C(=O)NC5(C(=O)NCCN6CCN(S(N)(=O)=O)CC6)CC5)cs4)cs3)nc2-c2csc(n2)[C@H]([C@@H](C)O)NC(=O)c2csc(n2)[C@H](C(C)C)NC(=O)c2csc1n2 [Compound 30],,1 µg/mL,,0.5 µg/mL,1 µg/mL,0.5 µg/mL,,0.25 µg/mL,,,1 µg/mL,,,,,0.559 µg/mL,0.024 µg/mL,0.089 µg/mL,
C/C=C1\NC(=O)[C@H]([C@@H](C)O)NC(=O)c2csc(n2)-c2ccc(-c3nc(-c4nc(C(=O)NC5(C(=O)NCCN6CCN(C(C)C)CC6)CC5)cs4)cs3)nc2-c2csc(n2)[C@H]([C@@H](C)O)NC(=O)c2csc(n2)[C@H](C(C)C)NC(=O)c2csc1n2 [Compound 35],,,,0.5 µg/mL,0.5 µg/mL,1 µg/mL,,0.25 µg/mL,,1 µg/mL,0.5 µg/mL,,,,,0.123 µg/mL,0.139 µg/mL,0.109 µg/mL,
